Laboratory results reported in patent publication US20080221203A1, “Use of Agonists and Antagonists of Beta Adrenoceptors for Treating Arterial Disease” (UNIVERSITY CATHOLIQUE DE LOUVAIN, priority 2004, published 2008).
Entries after “also recorded” stand apart in the source; their conditions may differ. Like-named read-outs stand apart in the source and are kept apart here. No end group written: not given here.

Columns and labels:
[1] = system: human coronary microarteries; assay: Videomicroscopy of relaxation of pre-constricted, pressurized human coronary microarteries; type: cell-based; details: for relaxation of vessels without functional endothelium, % of the maximum KCl-evoked contraction: de-endothelialized / endothelium destroyed microarteries; for relaxation, % of the maximum ET-1-evoked contraction: agonist alone; for relaxation in the presence of bupranolol: beta1-2-3 antagonist bupranolol; for relaxation, % of the maximum ET-1-evoked contraction, in the presence of nadolol: pre-treatment with beta1-2 antagonist nadolol; for relaxation of de-endothelialized vessels in the presence of nadolol: de-endothelialized microarteries; for relaxation, % of the maximum KCl-evoked contraction: pre-constricted with high (50 mmol/L) KCl, functional endothelium
Method: Vessels were cannulated with dual glass micropipettes and secured with 10-0 nylon monofilament sutures in a Plexiglas isolated organ chamber circulated with oxygenated PSS (37° C.) and placed on an inverted microscope (Axiovert S100, Zeiss, Germany) connected to a CCD camera. Microvessels were pressurized with a PSS-filled burette manometer at 60 mmHg (a pressure chosen to avoid stretch-dependent effects typically manifested at higher pressures) in a no-flow state. Digitized imaging (IONOPTIX Corporation, Milton, Mass.) allowed continuous monitoring of vessel external diameter. All experiments were carried out in the presence of cyclooxygenase inhibitor (indomethacin, 10 μmol/L). After 30-45 min equilibration, vessels were contracted with high KCl solution (PSS, 50 mmol/L KCl replacing NaCl stoechiometrically). At the maximum of contraction, vasorelaxation with Substance P (100 nmol/L) was systematically tested to assess the presence of a functional endothelium. In some experiments, the endothelium was selectively destroyed by an air bolus. All reagents were added in the bathing solution.

[2] = system: human beta3 AR; assay: Akt and eNOS phosphorylation in neonatal cardiac myocytes with adenoviral expression of human beta3 AR; type: cell-based, mouse; details: agonist-mediated activation, Isoproterenol+nadolol; myocytes from C57BI6 control and cardiac eNOS transgene mice
[3] = system: aortic rings; assay: Mouse aortic ring angiogenesis (new tubes formation); type: cell-based; details: for angiogenic response in beta3 adrenoceptor deficient rings: aortic rings from beta 3-KO mice
[4] = system: eNOS; assay: eNOS Threonine 495 phosphorylation in cultured endothelial cells (phospho-specific antibodies); type: cell-based
Method: (§1) Human and rat cardiac coronary resistance microarteries (70-170μ diameter) were mounted in dual glass micropipettes chambers in no-flow state and constant pressure for vasomotion analysis by videomicroscopy. In addition, calcium transients and NO release were measured in cultured endothelial cells with an amperometric electrode and Fura-2 fluorescence, respectively. Phosphorylation of eNOS was measured in the same cells with phospho-specific antibodies.

[5] = system: coronary microarteries from mice deficient for the beta3-adrenoceptor; assay: Relaxation of coronary microarteries from mice deficient for the beta3-adrenoceptor; type: cell-based, mouse
Method: as §1, with “antibodies. […] Relaxation to Nebivolol was blunted in coronary microarteries from mice deficient for the beta3-adrenoceptor (C).” for “antibodies.”

[6] = system: cultured endothelial cells; assay: NO release in cultured endothelial cells; type: cell-based; details: for NO release in the presence of L-NAME: 10 μM; for NO release: at 10 μM
Method: as §1

[7] = system: cultured endothelial cells; assay: Calcium transients (Ca fluorescence) in cultured endothelial cells; type: cell-based; details: for Ca signal increase after pre-treatment with nadolol: beta1-2 antagonist nadolol; for Ca signal increase after pre-treatment with bupranolol: combined beta1-2-3 antagonist bupranolol; for increase of Ca fluorescence: endothelial cells, compound alone
Method: as §1

[8] = system: rat coronary microvessels; assay: Videomicroscopy of relaxation of rat coronary microvessels; type: cell-based; details: for max relaxation, % of PGF2alpha pre-contracted tone: at 10 μM
Method: as §1

[9] = system: human coronary microarteries; assay: Measurement of smooth muscle membrane potential of isolated human coronary microvessels; type: cell-based; details: in the presence of NO synthase and cyclooxygenase inhibition
Method: Human right atrial and left ventricular tissue specimens obtained from patients undergoing cardiac surgery were placed in physiological saline solution (PSS) containing (mmol/L): NaCl, 120; KCl, 5.9; NaHCO3, 25; dextrose, 17.5; CaCl2, 2.5; MgCl2, 1.2; NaH2PO4, 1.2 (pH 7.4) maintained at 0-4° C., and carefully dissected to isolate microarteries. Coronary microarteries (70-170 μm diameter, 1-2 mm length), rapidly cleaned of adherent connective tissue were either kept at −80° C. until homogenization or used for functional experiments.
Microvessels were mounted in an organ bath continuously circulated (6 mL/min) with oxygenated PSS at 37° C. All experiments were performed in the presence of a NO synthase inhibitor (L-w-nitroarginine, 100 μmol/L) and indomethacin (10 μmol/L). After 60 minutes of equilibration, measurement of the smooth muscle membrane potential (Em) was made with a glass microelectrode (Clark, Electromedical instruments, type GC 120F-15) filled with 1.5M KCl. The input resistance of the microelectrodes varied between 50 and 80 MΩ. Differences in electric potential were measured with a Dagan amplifier (8100, Minneapolis, Minn., U.S.A.) and recorded. Criteria for a successful impalement were (1) an abrupt drop in voltage on entry of microelectrode into the cell, (2) stable membrane potential for at least 2 min, and (3) a sharp return to zero on withdrawal of the electrode.

[10] = ET-1 pre-constricted, intact endothelium
[11] = ET-1 pre-constricted, intact endothelium, listed as isoproterenol
[12] = rat microvessels, listed as Nebivolol
[13] = ET-1 pre-constricted, intact endothelium, listed as BRL 37344

## Substance P: endothelium-specific agonist (RPKPQQFFGLM; ends and bridges not checked; UniProt P20366 58-68, looked up)
[1]
  relaxation of vessels without functional endothelium, % of the maximum KCl-evoked contraction: absence of relaxation

## CC(C)NCC(O)c1ccc(O)c(O)c1 (stereo not drawn) [isoprenaline]
[1]; [10]
  relaxation, % of the maximum ET-1-evoked contraction: ~50%
  relaxation in the presence of bupranolol: blocked; also recorded: abolished
  relaxation, % of the maximum ET-1-evoked contraction, in the presence of nadolol: insensitive; also recorded: resistant
[1]; [11]
  relaxation, % of the maximum ET-1-evoked contraction: by half
  relaxation in the presence of bupranolol: fully abrogated
  relaxation, % of the maximum ET-1-evoked contraction, in the presence of nadolol: unaffected
[1]
  relaxation of vessels without functional endothelium, % of the maximum KCl-evoked contraction: 21.0±6.3%
[1]; nadolol, listed as Iso
  relaxation of de-endothelialized vessels in the presence of nadolol: abrogated
[1]; nadolol, listed as isoproterenol
  relaxation of de-endothelialized vessels in the presence of nadolol: 1.4±0.5%
[2]
  phosphorylation of Akt and downstream eNOS: increased phosphorylation of Akt and downstream eNOS

## VEGF
[3]
  angiogenic response in beta3 adrenoceptor deficient rings: angiogenic response

## OC(CNCC(O)C1CCc2cc(F)ccc2O1)C1CCc2cc(F)ccc2O1 (stereo not drawn) [nebivolol]
[4]
  phosphorylation of Threonine 495 on eNOS: dephosphorylated
[4]; listed as Nebivolol
  phosphorylation of Threonine 495 on eNOS: time-dependent dephosphorylation
[5]
  relaxation in microvessels from mice genetically deficient in beta3-AR: blunted
[6]
  NO release in the presence of L-NAME: 26.5±4.3 nmoles/μg prot
  NO release: 117 nmol/µg protein
[6]; listed as Nebivolol
  NO release in the presence of L-NAME: sensitive to L-Name
  NO release: evoked a release of NO
[1]; human coronary microvessels
  dependence of relaxation on endothelium (Example 2): dependent on a functional endothelium
[1]; human coronary microvessels, NOS inhibition
  relaxation under NOS inhibition (Example 2): sensitive to NOS inhibition
[1]; human coronary microvessels, nadolol
  relaxation in the presence of nadolol (Example 2): insensitive
[7]
  Ca signal increase after pre-treatment with nadolol: no effect
  Ca signal increase after pre-treatment with bupranolol: significantly blunted
  increase of Ca fluorescence: 91.8±23.7%
[7]; listed as Nebivolol
  Ca signal increase after pre-treatment with nadolol: unchanged
  Ca signal increase after pre-treatment with bupranolol: sensitive to bupranolol
  increase of Ca fluorescence: cytosolic calcium increase
[8]
  max relaxation, % of PGF2alpha pre-contracted tone: dose-dependent-relaxation
[8]; listed as Nebivolol
  max relaxation, % of PGF2alpha pre-contracted tone: 86±6%
[8]; rat microvessels, NOS inhibition
  relaxation under NOS inhibition: sensitive to NOS inhibition
[8]; rat microvessels
  relaxation in the presence of bupranolol: sensitive to bupranolol
  relaxation in the presence of nadolol: not to nadolol
[8]; [12]
  relaxation in the presence of bupranolol: prevented
  relaxation in the presence of nadolol: unaffected

## CCOC(=O)COc1ccc2c(c1)C[C@@H](NC[C@H](O)c1cccc(Cl)c1)CC2 [SR58611]
[3]; aortic rings from C57BI6 mice treated in vitro
  new tubes formation compared to untreated controls: time-dependent increase in new tubes formation
[3]
  angiogenic response in beta3 adrenoceptor deficient rings: completely lost

## NC[C@H](O)c1ccc(O)c(O)c1 [norepinephrine]
[1]; 1 micromol/l, intact endothelium, pretreated with nadolol and phentolamine
  relaxation, % of ET-1 contraction: 41.4±7%

## C[C@H](Cc1ccc(OCC(=O)O)cc1)NC[C@H](O)c1cccc(Cl)c1 [BRL37344]
[1]; ET-1 pre-constricted, L-w-nitroarginine
  relaxation of ET-1 preconstricted vessels under NO synthase inhibition: unaffected
[1]; [10]
  relaxation, % of the maximum ET-1-evoked contraction: ~50%
  relaxation in the presence of bupranolol: blocked; also recorded: abolished
  relaxation, % of the maximum ET-1-evoked contraction, in the presence of nadolol: insensitive; also recorded: resistant
[1]; [13]
  relaxation, % of the maximum ET-1-evoked contraction: 52.3±13.2%
  relaxation in the presence of bupranolol: fully abrogated
  relaxation, % of the maximum ET-1-evoked contraction, in the presence of nadolol: 54.9±16.8%
[1]; Example 2, nebivolol at 10 μM
  max relaxation, % of ET-1 pre-contracted tone: reproduced
[1]; KCl pre-constricted, L-w-nitroarginine 100 μmol/L
  relaxation of KCl-preconstricted vessels under NO synthase inhibition: totally abrogated
[1]
  relaxation of vessels without functional endothelium, % of the maximum KCl-evoked contraction: absent; also recorded: not observed; also recorded: failed to relax
  relaxation, % of the maximum KCl-evoked contraction: 15.5%
[1]; listed as BRL 37344
  relaxation, % of the maximum KCl-evoked contraction: 15.5±5.3%
[9]
  smooth muscle membrane potential: significant hyperpolarization
